Measurements from patent US6649797B2, “Compounds and methods of use to treat infectious diseases” (The Picower Institute for Medical Research, priority 1996, dated 2003).
Counter-ions that a name gives are not always drawn. Like-named read-outs stand apart in the source and are kept apart here.

Legend:
[1] = system: macrophage-tropic strain of HIV-1; test: Inhibition of HIV-1 replication in peripheral blood-derived macrophages (IC50, RT or p24 in medium); type: cell-based; conditions: Human immunodeficiency virus 1, Macrophage, 120 h; 50% inhibition of viral growth; RT or p24 in medium about day 5 or 6 post-infection
Procedure: A quantitative measurement of the activity of the compounds of the invention to block the replication of HIV-1 in non-dividing cells can be determined by culture of a macrophage-tropic strain of HIV-1 on peripheral blood-derived macrophages. The cells are cultured for 5-6 days prior to infection in a medium consisting of DMEM supplemented with 10% type A/B human serum and 200 U/ml Macrophage Colony Stimulating Factor, with half the medium changed after 3 days, to reach a density of about 10^6 cells per 5 ml well. A macrophage-tropic viral stock may be grown on these cells. The concentration of infectious particles in the stock is estimated by measurement of p24 antigen concentration.
To test the effect of compounds of the invention on HIV-1 infection in the above-described culture system, the medium is removed and replaced with medium containing HIV-1 at a concentration of 1 ng of p24 (10^4 TCID50/ml (TCID=tissue culture infectious doses)) and a known concentration of the compound of the invention (the inhibitor). After 24 hours, the cultures are washed to remove non-adherent virus and the culture is re-fed with medium containing the inhibitor at the desired concentration. The amount of replication of HIV-1 is estimated by an assay of the reverse transcriptase activity or by an assay of the concentration of p24 antigen in the culture medium every 2-3 days throughout the post-infection period. In a preferred embodiment the anti-HIV potency of the candidate drug is measured by comparison of the concentration of reverse transcriptase (RT) or of p24 antigen in the medium of the treated and control cultures at the time of the peak of these values in non-treated control cultures, that is about day 5 or 6 post-infection. Repetition at various levels of inhibitor allows for the calculation of the concentration of inhibitor that achieves 50% inhibition of viral growth, IC50. Table I discloses the IC50 of various inhibitors.

[2] = Pharmacokinetics in mice (plasma, HPLC); type: in vivo, mouse; conditions: for Dose: calculated from clearance for target serum conc. (No. 2: 10 nM; No. 11: 50 nM; No. 15: 15 nM); for AUC / Cmax / Tmax / bioavailability: female, ND4 Swiss Webster, plasma; for Tmax: read-out: tmax (converted)
Procedure: Standard addition curves for each test compound were constructed by adding increased amounts of drug to mouse or human A^+ plasma (Long Island Blood Services; Melville, N.Y). […] The column was washed with 1.0 ml of water and then eluted with 1.0 ml of 10 mM tetramethylammonium chloride/10 mM heptane sulfonate/4.2 mM H3PO4/95% CH3CN/5% H2O (Buffer C). The eluted sample was reduced to dryness in a rotary evaporator and resuspended in 1.0 ml Buffer A.
Two hundred μl of the resuspended sample was injected onto a Hewlett-Packard model 1090 high performance liquid chromatography system (HPLC)(Wilmington, Del.) equipped with a photodiode array ultraviolet/visible spectrophotometric detector, autosampler, and Chemstation operating software. The column used was a 250×4.6 mm Zorbax RX-C8 column (Mac-Mod Analyticals; Chadd's Ford, Pa.) kept at room temperature and run at 1.5 ml/min. The mobile phase used was Buffer A and 10 mM tetramethylammonium chloride/10 mM heptane sulfonate/4.2 mM H3PO4/75% CH3CN/25% H2O (Buffer B), with all runs initiated at 10% Buffer B. A linear 30 min gradient to 60% Buffer B was then performed, followed by a 4 min reverse gradient to initial conditions.
Female ND4 Swiss Webster mice (21-24 g) were obtained from Harlan Sprague Dawley (Indianapolis, Ind.) and randomly placed in groups of five in cages with free access to food and water. […] The other CNI compounds were administered intraperitoneally or by oral gavage as a solution in water titrated with sufficient HCl to dissolve the drug. At various time points, ranging from 5 min to 4 days, a single group of animals was euthanized by carbon dioxide inhalation and bled by cardiac puncture using heparin as an anticoagulant. The blood from the five mice in the group was pooled and centrifuged at 14000× g for 10 min. The volume of plasma was measured, and equal volume of Buffer A added, and the mixture extracted and analyzed as described above, except that the dried eluates were resuspended in 200 μl Buffer A and 100 μl was injected onto the high performance liquid chromatography (HPLC) system.
The area under the plasma concentration-time curve (AUC) was determined, and bioavailability was measured as AUCoral/AUCi.p. A and B represent the zero time intercept of the distribution and elimination phases respectively, and a and β the respective slopes of the phases multiplied by 2.303. The t/2α and t1/2β are calculated half-lives of the drug in each phase (0.693/α and 0.693/β respectively). The volume of distribution (VD) was calculated as dose/B, and the total clearance rate (Cltot) calculated as β*VD. Cmax and tmax are the maximal plasma concentration and time of this measurement, respectively.

[3] = Toxicity in mice, median lethal dose by intraperitoneal injection; type: in vivo, mouse; conditions: for LD50: mouse, in vivo, ip, read-out: LD50 ± standard deviation
Procedure: The doses of compounds of the invention found to be lethal to 50% of the mice (LD50) were determined by intraperitoneal injection of groups of five animals with increasing doses of each compound. CNI-0294 was administered from 0, 2, 10, 20, 40, 80, 160, 320, 640, 1280 mg/kg in 0.5 ml of water/HCl; CNI-1594 at 0, 2.4, 5, 10, 20, 40, 80 mg/kg in 0.5 ml of water/HCl; CNI-1794 at 0, 20, 50, 80 mg/kg in 0.5 ml of water/HCl; and CNI-1894 at 0, 10, 20, 40, 80, 240, 480, 960 mg/kg in water/HCl. […] The percentage of animals in each group which died were utilized to calculate the LD50 by non-linear curve fitting with the Enzfit software (Elsevier Bioscience; Cambridge, UK) programmed with the Chou equation (Chou 1976, J Theor Biol 39:253-276)).

[4] = In vitro metabolism with mouse liver post-mitochondrial supernatant and NADPH; type: in vitro ADME; conditions: for metabolic conversion (drug altered, as judged by peak area): 60 min incubation
Procedure: Several female ND4 Swiss Webster mice were euthanized by carbon dioxide inhalation and the livers excised and rinsed with ice cold phosphate buffered saline (pH 7.4). The livers were minced, gently homogenized in 50 mM phosphate buffer (pH 7.4) with a Dounce homogenizer, and centrifuged at 9600× g for 20 min. The post-mitochondrial supernatant was kept, glycerol added to 20%, and frozen at −70° C in 1.0 ml aliquots until used. For each incubation, 1.0 ml of a 1.0 mg/ml drug solution was added to 3.0 ml of 50 mM phosphate buffer (pH 7.4), 1.0 ml of 2 mg/ml NADPH in 50 mM phosphate (pH 7.4), and 1.0 ml of the post-mitochondrial supernatant. Five hundred μl of each incubate was then immediately transferred to an ice-cold tube to provide the zero-time sample, and addition 500 μl aliquots removed to ice-cold tubes at 8, 15, 30, and 60 min. The samples were then extracted, and analyzed by HPLC as described in section 7.1. Control incubations were also performed where drug or post-10 mitochondrial supernatant was omitted. […] Peaks in the CNI compound incubations which increased over time, and were not present in control samples lacking the enzyme preparation were treated as putative metabolites.

Plasmodium falciparum = test: Antimalarial activity in vitro, [3H]-hypoxanthine incorporation; type: cell-based; conditions: clone Dd2
Text: The antimalarial properties of the compounds of the invention can be analyzed by techniques, assays and experimental animal models well known in the art. For example, the inhibition of growth of Plasmodium falciparum in vitro by the compounds may be assessed by the hypoxanthine-incorporation method (Desjardins et al., 1979, Antimicrob. Ag. Chemother. 16:710-718). […] The in vivo efficacy of the compounds can also be tested in mouse models in which parasitemia is enumerated following administration of the compound (Ager, A. L. 1984, Rodent malaria models, pp 225-264. In Handbook of Experimental Pharmacology vol. 68, Antimalarial Drugs, Peters and Richards eds, Springer-Verlag, Berlin).
The antimalarial activity of the compounds was determined essentially as described in Desjardins et al. supra. Fifty μl of various concentrations of a compound of the invention, chloroquine, or pyrimethamine were added to the wells of microtiter plates, followed by 200 μl of ring-stage, synchronized, P. falciparum-infected erythrocytes (final hematocrit=1.5%, final parasitemia=1-5%). The plates were incubated for 24 hr in a candle jar kept at 37° C., and then 25 μl of [^3H]-hypoxanthine (Amersham, Arlington Heights, ILL.; 2.5 μl Ci/well) was added. The plates were then incubated for a further 24 hr, before harvesting onto Unifilter-96 GF/C filter-microplates (Packard; Meriden, Conn.). Twenty-five μl of Microscint scintillation fluid (Packard) was added to each well of the filter-microplate, which was subsequently counted in a Top-count microplate scintillation counter (Packard). The percent of [^3H]-hypoxanthine uptake relative to control infect-erythrocytes was used to determine the IC50 value for the compounds by non-linear regression for LD50 determination.

HIV-1 = HIV-1 production in cultured monocytes at fixed 100 nM; type: cell-based; conditions: monocytes infected 10 days prior to assay (10 ng p24/10^6 cells), percentage of untreated control
Procedure: Alternatively, the compounds may all be compared for inhibition of HIV replication at a fixed concentration. Presented in Table II are compounds that were used at a concentration of 100 nM to inhibit the production of HIV-1 in cultured monocytes infected with HIV-1 10 days prior to assay (10 ng of p24/10^6 cells). The production of HIV-1 in each treated culture is reported as percentage of untreated control.

HIV-1ADA = test: Anti-HIV activity in primary human monocytes, day 9 (Table IX, FIG. 12C); type: cell-based; conditions: Human immunodeficiency virus 1, Monocyte, 216 h; day 9 after infection; >10 μM = 50% inhibition not achieved at maximal concentration; read-out: IC50
Procedure: Monocytes infected with HIV-1ADA were cultured in the presence of CNI-H0294 and CNI-H3094 in various concentrations. Nine days after infection, RT activity in culture supernatants was quantified. The results are presented as percent of total RT activity in untreated cultures (control). Three independent samples were assayed for each drug concentration, and the standard deviation was less than 15%.
[…] A 50% inhibitory concentration (IC50) was determined at day 9 after infection.

[5] = mouse, ip, 20 mg/kg, vehicle water
[6] = mouse, i.p., 20 mg/kg, vehicle water
[7] = mouse, ip, 50 mg/kg, vehicle water
[8] = mouse, po, 50 mg/kg, vehicle water
[9] = mouse, i.p., 50 mg/kg, vehicle water

`CC(=O)c1cccc(Nc2cc(C)nc(N)n2)c1` [Compound No. 15, 4-(3-acetylphenyl)amino-2-amino-6-methylpyrimidine] gave an IC50 [1] of 15 nM, a Dose [2] of 5.70 mg/Kg day and an AUC [2, 5] of 820 ng·h/mL. For the same compound, the Cmax [2, 5] was 1930 ng/mL, the Tmax ([2]; ip, mouse, i.p., 20 mg/kg, vehicle water) was 15 min and the “A (zero time intercept of the distribution phase)” value [2, 6] was 1.10 µg/mL. The “B (zero time intercept of the elimination phase)” value [2, 6] was 0.01 µg/mL, the Cltot [2, 6] was 26.40 mL/min and the t1/2α [2, 6] was 19.2 min. The t1/2β [2, 6] was 1040 min, the α [2, 6] was 2.14 h⁻¹ and the β [2, 6] was 0.04 h⁻¹. For the same compound, the “visible signs of toxicity” value [3] was “death occurring in minutes and the animals displaying signs of acute neurotoxicity”, the LD50 [3] was 49.04 ± 0.08 mg/kg and the metabolites produced [4] was “three minor and one major metabolite”. For the same compound, the “metabolic conversion (drug altered, as judged by peak area)” value [4] was 11.74%.
Compound `CC(=O)c1cccc(Nc2cc(C)[n+](C)c(N)n2)c1` (as salt: iodide) [Compound No. 14, 4-(3-acetylphenyl)amino-2-amino-1,6-dimethylpyrimidinium iodide] has a melting point of 238 to 240 °C.
In the case of `CC(=O)c1cc(Nc2cc(C)nc(N)n2)cc(C(C)=O)c1` [Compound No. 11, 2-amino-4-(3,5-diacetylphenyl)amino-6-methylpyrimidine], the IC50 [1] is reported as 50 nM, the Dose [2] is reported as 13.3 mg/Kg day and the AUC [2, 7] is reported as 3930 ng·h/mL. The Cmax [2, 7] was 5700 ng/mL, the bioavailability ([2]; mouse, oral, mice, single 50 mg/kg dose, AUCoral against AUCi.p., read-out: relative bioavailability) was 15% and the AUC [2, 8] was 570 ng·h/mL. It also gave a Cmax [2, 8] of 350 ng/mL, a Tmax ([2]; ip, mouse, i.p., 50 mg/kg, vehicle water) of 15 min and a bioavailability ([2]; mouse, oral, 50 mg/kg, vehicle water, AUCoral/AUCi.p., read-out: Bioavailability) of 15%. The Tmax ([2]; mouse, oral, 50 mg/kg, vehicle water) was 15 min, the maximal plasma level ([2]; mice, oral, single 50 mg/kg dose) was 0.35 µg/mL and the “A (zero time intercept of the distribution phase)” value [2, 9] was 5.22 µg/mL. For the same compound, the “B (zero time intercept of the elimination phase)” value [2, 9] was 0.14 µg/mL, the Cltot [2, 9] was 16.50 mL/min and the VD [2, 9] was 5.21 L. It also gave a t1/2α [2, 9] of 22.8 min, a t1/2β [2, 9] of 219 min and a α [2, 9] of 1.83 h⁻¹. The β [2, 9] was 0.19 h⁻¹, the “visible signs of toxicity” value [3] was “well tolerated” and the LD50 [3] was over 160 mg/kg. For the same compound, the metabolites produced [4] was “three minor and one major metabolite”, the “metabolic conversion (drug altered, as judged by peak area)” value [4] was 65.19% and the “less active than CNI-0294” value (Plasmodium falciparum) was “approximately 5 fold”.
In the case of `CC(=O)c1cc(Nc2nc(N)nc(N)n2)cc(C(C)=O)c1` [Compound No. 13, 2-(3,5-diacetylphenyl)amino-4,6-diamino-1,3,5-triazine], the “Viral Production” value (HIV-1) is reported as 14% and the melting point is reported as 271 to 272 °C.
In the case of `CC(=O)c1cc(NC(=N)NC(=N)N)cc(C(C)=O)c1.Cl` [Compound No. 12, N-(3,5-diacetylphenyl)biguanide hydrochloride], the “Viral Production” value (HIV-1) is reported as 12% and the melting point is reported as 260 to 270 °C (dec.).
Work on `CC(=O)c1cccc(Nc2cc(C)[n+](C)c(N)n2)c1` [Compound No. 14, 4-(3-acetylphenyl)amino-2-amino-1,6-dimethylpyrimidinium iodide] yielded an IC50 [1] of 10 nM and an IC50 (HIV-1ADA) of 1000 nM.
